# Data: BindingDB's records for patent US20250163061 (Bala Therapeutics, 2025)
# pEC50: −log10 of the molar value.
# Target: T1, Menin (Homo sapiens, UniProt O00255)
# T1 sequence (O00255 whole entry): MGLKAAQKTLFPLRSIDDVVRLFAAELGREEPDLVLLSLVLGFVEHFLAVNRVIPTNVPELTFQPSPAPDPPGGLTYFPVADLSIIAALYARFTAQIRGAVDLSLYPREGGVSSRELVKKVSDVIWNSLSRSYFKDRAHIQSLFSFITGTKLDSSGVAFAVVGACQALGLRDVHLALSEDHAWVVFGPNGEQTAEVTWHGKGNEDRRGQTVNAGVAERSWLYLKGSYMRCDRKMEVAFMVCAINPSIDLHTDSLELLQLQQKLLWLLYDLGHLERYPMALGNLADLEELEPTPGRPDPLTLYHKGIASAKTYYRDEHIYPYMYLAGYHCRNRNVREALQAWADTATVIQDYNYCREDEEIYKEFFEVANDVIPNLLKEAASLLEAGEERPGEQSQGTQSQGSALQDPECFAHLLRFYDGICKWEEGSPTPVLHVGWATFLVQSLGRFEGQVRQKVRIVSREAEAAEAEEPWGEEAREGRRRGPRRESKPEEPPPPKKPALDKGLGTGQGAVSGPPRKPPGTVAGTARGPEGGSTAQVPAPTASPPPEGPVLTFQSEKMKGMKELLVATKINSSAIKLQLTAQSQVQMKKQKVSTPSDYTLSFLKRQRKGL
# Assay: Primary Assay Used to Determine Potency of MEN1 Activity Inhibition
# Experimental: Compound activity was determined using recombinant MEN1 protein (Creativebiomart, Cat #MEN1-35H) and a custom fluorescein-labeled MLL4-43 peptide (Eton Bioscience Inc.). Interaction between MEN1 and MLL4-43 in the presence of compounds was determined by fluorescence polarization assay using a Microplate Reader ClarioStar Plus. The reaction was carried out in assay buffer (50 mM TRIS-HCl pH 7.4-7.6, 50 mM NaCl, 1 mM DTT, 0.1 mg/ml BSA). The compounds were dispensed on a 384 well Diamond Well Plate (Axigen, Cat #P-384-120SQ-C-S) using the Biomek FX liquid handling system at 100× solutions of compounds in DMSO. 2×MEN1 mix (final concentration of MEN1 10 nM) was prepared in Assay buffer and 10 μl of mixture per well was added into 384 w white Reaction plate with NBS (Corning, Cat #4513). 10 μl of Assay buffer w/o MEN1 was used for negative control. Plates were centrifuged for 1 min at 100 g. Next step the Compounds were added to Reaction plate using Biomek station via following steps: 3 μl of 100× compounds (in DMSO) were mixed thoroughly with 27 μl Assay Buffer, then 2 μl of this mixture was added to Reaction plate with 10 μl of MEN1 mix. Plates were centrifuged for 1 min at 100 g and incubated for 20 min at room temperature. Next 8 μL of MLL4-43 peptide per well was added to final concentration of MLL 0.5 nM. Plates were incubated for 1 hour at room temperature. Then fluorescence polarization was measured using Microplate Reader.
row,SMILES,pEC50
1,"Cc1c(CN2CCC3(CC2)CN(c2ncnc4ccc(CC(F)(F)F)cc24)C3)ccc2c1cc(C#N)n2CC(C)N1CCN(S(C)(=O)=O)CC1 (centres undefined) [US20250163061, Compound 71]",> 7.12
2,"Cc1c(CN2CCC3(CC2)CN(c2ncnc4ccc(CC(F)(F)F)cc24)C3)ccc2c1cc(C#N)n2CC1CCC(=O)NC1 (centres undefined) [US20250163061, Compound 72]",> 7.12
3,"CCCCS(=O)(=O)N1CCCN(C(C)Cn2c(C#N)cc3c(C)c(CN4CCC5(CC4)CN(c4ncnc6ccc(CC(F)(F)F)cc46)C5)ccc32)CC1 (centres undefined) [US20250163061, Compound 73]",> 7.12
4,"Cc1c(CN2CCC3(CC2)CN(c2ncnc4ccc(C(F)(F)C(F)(F)F)cc24)C3)ccc2c1cc(C#N)n2C[C@H](C)N1CCN(S(C)(=O)=O)CC1 [US20250163061, Compound 75]",> 7.12
5,"CC(Cn1c(C#N)cc2c(F)c(CN3CCC4(CC3)CN(c3ncnc5ccc(CC(F)(F)F)cc35)C4)ccc21)N1CCN(S(C)(=O)=O)CC1 (centres undefined) [US20250163061, Compound 78]",6.30 to 7.12
6,"Cc1c(CN2CCC3(CC2)CN(c2nncc4ccc(CC(F)(F)F)cc24)C3)ccc2c1cc(C#N)n2CC(C)N1CCN(S(C)(=O)=O)CC1 (centres undefined) [US20250163061, Compound 79]",< 5.30
7,"Cc1cc(CN2CCC3(CC2)CN(c2ncnc4ccc(CC(F)(F)F)cc24)C3)cc2c1cc(C#N)n2CC(C)N1CCN(S(C)(=O)=O)CC1 (centres undefined) [US20250163061, Compound 83]",< 5.30
8,"C=CC(=O)N1CCN(CCn2c(C#N)cc3cc(CN4CCC5(CC4)CN(c4ncnc6ccc(CC(F)(F)F)cc46)C5)ccc32)CC1 [US20250163061, Compound 86]",6.30 to 7.12
9,"Cc1c(CN2CCC3(CC2)CN(c2ncnc4ccc(CC(F)(F)F)cc24)C3)ccc2c1cc(C#N)n2CC1CNC(=O)CCO1 (centres undefined) [US20250163061, Compound 87]",> 7.12
10,"Cc1c(CN2CCC3(CC2)CN(c2ncnc4ncc(CC(F)(F)F)cc24)C3)ccc2c1cc(C#N)n2CC(C)N1CCN(S(C)(=O)=O)CC1 (centres undefined) [US20250163061, Compound 89]",> 7.12
11,"CS(=O)(=O)N1CCN(CCn2c(C#N)cc3cc(CN4CCC5(CC4)CN(c4ncnc6ccc(CC(F)(F)F)cc46)C5)ccc32)CC1 [US20250163061, Compound 91]",> 7.12
12,"Cc1c(CN2CCC3(CC2)CN(c2ncnc4ccc(CC(F)(F)F)cc24)C3)ccc2c1cc(C#N)n2CC(C)N1CCNC(=O)C1 (centres undefined) [US20250163061, Compound 93]",> 7.12
13,"Cc1c(CN2CCC3(CC2)CN(c2ncnc4ccc(CC(F)(F)F)cc24)C3)ccc2c1cc(C#N)n2CC12CC(NC=O)(C1)C2 [US20250163061, Compound 95]",> 7.12
14,"Cc1c(CN2CCC3(CC2)CN(c2ncnc4ccc(CC(F)(F)F)cc24)C3)ccc2c1cc(C#N)n2CCN1CCOCC1 [US20250163061, Compound 97]",> 7.12
15,"CN(C)C/C=C/C(=O)N1CCN(CCn2c(C#N)cc3cc(CN4CCC5(CC4)CN(c4ncnc6ccc(CC(F)(F)F)cc46)C5)ccc32)CC1 [US20250163061, Compound 99]",> 7.12
16,"Cc1c(CN2CCC3(CC2)CN(c2ncnc4ccc(CC(F)(F)F)cc24)C3)ccc2c1cc(C#N)n2C[C@H]1CNC(=O)CO1 [US20250163061, Compound 101]",> 7.12
17,"Cc1c(CN2CCC3(CC2)CN(c2ncnc4ccc(CC(F)(F)F)cc24)C3)ccc2c1cc(C#N)n2C[C@@H]1CNC(=O)CO1 [US20250163061, Compound 102]",> 7.12
18,"CCN1CC(Cn2c(C#N)cc3c(C)c(CN4CCC5(CC4)CN(c4ncnc6ccc(CC(F)(F)F)cc46)C5)ccc32)OCC1=O (centres undefined) [US20250163061, Compound 104]",> 7.12
19,"Cc1c(CN2CCC3(CC2)CN(c2nc(=O)[nH]c4ccc(CC(F)(F)F)cc24)C3)ccc2c1cc(C#N)n2C[C@@H]1CNC(=O)CO1 [US20250163061, Compound 105]",6.00 to 6.30
